We go through 2 molecules from patent US20120252834A1 (priority 2009, published 2012).

Read-outs that look alike come from different tables or passages of the source.

The subject of data set [1] is peripheral blood cells and splenocytes from mice treated with SEB. Description: Cellular apoptosis by JC-1 fluorescence (flow cytometry) in SEB-treated mice. The data set is classed as in vivo, mouse. Conditions: rapamycin 0.16 mg/kg i.n. at 17 h, cells taken 18 h after SEB. The procedure: Detection of cellular apoptosis by measuring fluorescence of mitochondrial J-aggregates. The loss of mitochondrial permeability, indicative of cellular apoptosis was detected by a fluorescent cationic dye, JC-1 (51). Briefly, peripheral blood or spleens were removed at 18 h from mice treated with SEB, SEB plus 0.16 mg/kg of intranasal rapamycin at 17 h after SEB exposure. Negative controls consisted of mice treated with DMSO at 17 h after saline. Red blood cells from peripheral blood and spleens were lyzed with FACS lyzing buffer (Becton Dickinson, Mountainview, Calif.) prior to staining with JC-1 dye according to manufacturer's instructions (Immunochemistry Technology, Bloomington, Minn.). Flow cytometer (Becton Dickinson) was used to measure cell fluorescence at 530 nm, which represents apoptotic cells.

The conditions of data set [2]: cited from earlier work.
Data set [3] concerns SEA-, TSST-1-, SPEA-, and SPEC-stimulated human peripheral blood mononuclear cells. The data set is classed as cell-based. The settings on record: rapamycin 1 μg/mL.
Data set [4] deals with human PBMC stimulated with SEB. Kind of data set: cells. The data set is classed as cell-based. The settings on record: for inhibition at 6.9 µg/mL: Homo sapiens, PBMC, 16 h.
A short description of data set [5]: Determination of rapamycin in murine whole blood (HPLC, ion-trap MS). The data set is classed as in vivo. The settings on record: mouse; for concentration at 1 h / concentration at 97 h: C3H/HeJ, whole blood; for concentration at 1 h: read-out: blood level of rapamycin. The procedure:
Determination of rapamycin in murine whole blood. Blood was collected from rapamycin-treated mice (n=5) by retro-orbital bleeding into EDTA tubes 1 h after intranasal administration of rapamycin. Blood was centrifuged at 12000×g for 3 min to remove cells. Supernatants was removed and stored at −70° C. until analysis. Analysis of rapamycin was performed as previously described (23) using an Agilent Technologies series 1100 Capillary HPLC instrument and ion-trap mass spectrometer.

Data set [6] has as its system PBMC. Description: Trypan Blue exclusion test on PBMC. The settings on record: data not shown.
Data set [7] deals with lung MCP-1, IL-2 and IL-6 in SEB-exposed mice. Conditions: mouse, in vivo.
The subject of data set [8] is SEB-induced proliferation of T cells in PBMC. Description: cells. The data set is classed as cell-based, human.
Data set [9] deals with SEB-induced toxic shock in C3H/HeJ mice. Conditions: mouse, in vivo.
For data set [10], the system named is serum MCP-1, IL-6 and IL-2 in SEB-treated mice. The settings on record: mouse, in vivo.

Turning to `CO[C@H]1C[C@@H]2CC[C@@H](C)[C@@](O)(O2)C(=O)C(=O)N2CCCC[C@H]2C(=O)O[C@H]([C@H](C)C[C@@H]2CC[C@@H](O)[C@H](OC)C2)CC(=O)[C@H](C)/C=C(\C)[C@@H](O)[C@@H](OC)C(=O)[C@H](C)C[C@H](C)/C=C/C=C/C=C/1C` [rapamycin], the “decrease in number of apoptotic cells” value in data set [1] (mouse peripheral blood) was determined as 66%; in [1] (mouse spleen), 74%. In addition, the “blood concentrations of rapamycin” value in data set [2] (healthy subjects, 1 h after 15 mg of rapamycin) is 78.2 ± 18 ng/mL. For the same molecule, the “blood levels of rapamycin” value in data set [2] (renal transplantation, 5 mg/day, at 1.8 h) is 37.4 ± 21 ng/mL. Further, the “reduction of superantigen-induced T cell proliferation” value was determined as 74% in data set [3] (SEA-stimulated), 68% in [3] (SPEA-stimulated), 69% in [3] (SPEC-stimulated) and 42% in data set [3] (TSST-1-stimulated). Besides, in data set [4], the “suppression of IFNγ” value was determined as 36%. The “suppression of IL-2” value in data set [4] was 34%. Also, the inhibition at 6.9 µg/mL was 97% in data set [4] (read-out: inhibition of IL-1β production); 100% in [4] (read-out: inhibition of IL-2 production); 67% in data set [4] (read-out: inhibition of IL-6 production); 77% in data set [4] (read-out: inhibition of TNFα production); 94% in data set [8] (Homo sapiens, T-cell, 48 h, read-out: inhibition of SEB-induced T cell proliferation (maximal)). In addition, the concentration at 1 h in data set [5] (other: intranasal followed by intraperitoneal, 1 h after multiple dosing (2 i.n. doses plus 1 i.p. dose)) stood at 692 ± 406 ng/mL; in data set [5] (other: intranasal, 0.7 mg/kg, 1 h after an i.n. dose of 0.7 mg/kg), 492 ± 204 ng/mL. The concentration at 97 h in [5] (other: intranasal followed by intraperitoneal, at 97 h, lower doses (0.03 mg/kg i.n. at 2 and 5 h, 0.08 mg/kg i.p. at 24, 48, 72 and 96 h)) is 38 ± 15 ng/mL; in data set [5] (other: intranasal followed by intraperitoneal, at 97 h after multiple dosing (i.n. 0.7 mg/kg at 2 and 5 h, i.p. 1.6 mg/kg at 30, 48, 72 and 96 h)) it was 622 ± 282 ng/mL. In data set [5] (1 h after an i.n. dose of 0.7 mg/kg, 0.7 mg/kg), the “blood level of rapamycin” value is 658 ± 408 ng/mL. In addition, in [6], the “cytotoxic effect (Trypan Blue exclusion)” value is on record as “not due to cytotoxic effect”. Besides, in data set [7], the “attenuation of lung IL-2” value is recorded as 80%. Besides, in data set [7], the “attenuation of lung IL-6” value stood at 65%. For the same molecule, the “attenuation of lung MCP-1” value in data set [7] was found to be 56%. Moreover, the “reduction of T cell proliferation” value in [8] came to 56%. In addition, the “effective in protecting mice from SEB-mediated shock” value in [9] was 100%. In data set [9], this molecule displayed a protected of 100%. Besides, in [9], the protection was 20%. The weight gain in data set [9] is recorded as 8-17%. Also, the “reduction of peak serum IL-6” value in data set [10] was 80%. The “reduction of peak serum MCP-1” value in data set [10] stood at 90%.
With `C[C@@H]1C[C@H]2[C@@H]3CCC4=CC(=O)C=C[C@]4(C)[C@@]3(F)[C@@H](O)C[C@]2(C)[C@@]1(O)C(=O)CO` [dexamethasone], the lethality in [9] is on record as 90%.
